Experimental data: patent US10640534B2 (Agios Pharmaceuticals, Inc., priority 2012, dated 2020)

Test system: U87MG cells
Assay: Cellular assay, inhibition of 2-HG production in U87MG cells
Assay type: cell-based
Conditions: Homo sapiens, U-87 MG, 48 h
Procedure: Cells (HT1080 or U87MG) are grown in T125 flasks in DMEM containing 10% FBS, 1× penicillin/streptomycin and 500 ug/mL G418 (present in U87MG cells only). They are harvested by trypsin and seeded into 96 well white bottom plates at a density of 5000 cell/well in 100 ul/well in DMEM with 10% FBS. […] Cells are incubated overnight at 37° C. in 5% CO2. The next day test compounds are made up at 2× the final concentration and 100 ul are added to each cell well. The final concentration of DMSO is 0.2% and the DMSO control wells are plated in row G. The plates are then placed in the incubator for 48 hours. […] The cell plate is placed back in the incubator for another 24 hours. At 72 hours post compound addition, 10 mL/plate of Promega Cell Titer Glo reagent is thawed and mixed. The cell plate is removed from the incubator and allowed to equilibrate to room temperature. Then 100 ul of Promega Cell Titer Glo reagent is added to each well of media. The cell plate is then placed on an orbital shaker for 10 minutes and then allowed to sit at room temperature for 20 minutes. The plate is then read for luminescence with an integration time of 500 ms.

## N#Cc1cc(F)cc(N(C(=O)[C@@H]2CCC(=O)N2c2nccc(C#N)n2)[C@H](C(=O)NC2CCC(F)(F)CC2)c2ccccc2Cl)c1 [Compound 185, (S)—N—((S)-1-(2-Chlorophenyl)-2-((4,4-difluorocyclohexyl)amino)-2-oxoethyl)-N-(3-cyano-5-fluorophenyl)-1-(4-cyanopyrimidin-2-yl)-5-oxopyrrolidine-2-carboxamide]
  IC50: < 100 nM

## N#Cc1ccnc(N2C(=O)CC[C@H]2C(=O)N(c2cc(F)cc(F)c2)[C@H](C(=O)NC2CCC(F)(F)CC2)c2ccccc2Cl)n1 [Compound 87, (S)—N—((S)-1-(2-Chlorophenyl)-2-((4,4-difluorocyclohexyl)amino)-2-oxoethyl)-1-(4-cyanopyrimidin-2-yl)-N-(3,5-difluorophenyl)-5-oxopyrrolidine-2-carboxamide]
  IC50: < 100 nM

## N#Cc1ccnc(N2C(=O)[C@H](O)C[C@H]2C(=O)N(c2cc(F)cc(F)c2)[C@@H](C(=O)NC2CC(F)(F)C2)c2ccccc2Cl)c1 [Compound 114, (2S,4R)—N—((R)-1-(2-Chlorophenyl)-2-((3,3-difluorocyclobutyl)amino)-2-oxoethyl)-1-(4-cyanopyridin-2-yl)-N-(3,5-difluorophenyl)-4-hydroxy-5-oxopyrrolidine-2-carboxamide]
  IC50: < 100 nM

## N#Cc1ccnc(N2C(=O)CC[C@H]2C(=O)N(c2cc(F)cc(F)c2)[C@H](C(=O)NC2CC(F)(F)C2)c2ccccc2Cl)n1 [Compound 86, (S)—N—((S)-1-(2-Chlorophenyl)-2-((3,3-difluorocyclobutyl)amino)-2-oxoethyl)-1-(4-cyanopyrimidin-2-yl)-N-(3,5-difluorophenyl)-5-oxopyrrolidine-2-carboxamide]
  IC50: < 100 nM

## N#Cc1cnc(N2C(=O)CC[C@H]2C(=O)N(c2cc(F)cc(F)c2)[C@H](C(=O)NC2CC(F)(F)C2)c2ccccc2Cl)o1 [Compound 162, (S)—N—((S)-1-(2-chlorophenyl)-2-((3,3-difluorocyclobutyl)amino)-2-oxoethyl)-1-(5-cyanooxazol-2-yl)-N-(3,5-difluorophenyl)-5-oxopyrrolidine-2-carboxamide]
  IC50: < 100 nM

## N#Cc1ccc(N2C(=O)CC[C@H]2C(=O)N(c2cccc(F)c2)[C@H](C(=O)NC2CC(F)(F)C2)c2ccccc2Cl)nc1 [Compound 47]
  IC50: 100 to 500 nM

## N#Cc1ccnc(N2C(=O)[C@@H](O)C[C@H]2C(=O)N(c2cccc(F)c2)[C@H](C(=O)NC2CCC(F)(F)CC2)c2ccccc2Cl)c1 [Compound 172, (2S,4S)—N—((S)-1-(2-Chlorophenyl)-2-((4,4-difluorocyclohexyl)amino)-2-oxoethyl)-1-(4-cyano-pyridin-2-yl)-N-(3-fluorophenyl)-4-hydroxy-5-oxopyrrolidine-2-carboxamide]
  IC50: < 100 nM

## CS(=O)(=O)c1cc(F)cc(N(C(=O)[C@@H]2CCC(=O)N2c2nccc(C#N)n2)[C@H](C(=O)NC2CC(F)(F)C2)c2ccccc2Cl)c1 [Compound 109, (S)—N—((S)-1-(2-Chlorophenyl)-2-((3,3-difluorocyclobutyl)amino)-2-oxoethyl)-1-(4-cyanopyrimidin-2-yl)-N-(3-fluoro-5-(methylsulfonyl)phenyl)-5-oxopyrrolidine-2-carboxamide]
  IC50: 100 to 500 nM

## C[C@]1(O)C[C@@H](C(=O)N(c2cccc(F)c2)C(C(=O)NC2CC(F)(F)C2)c2ccccc2Cl)N(c2cc(C#N)ccn2)C1=O (single isomer, unassigned) [Compound 183]
  IC50: < 100 nM

## N#Cc1ccnc(N2C(=O)CC[C@H]2C(=O)N(c2cc(F)cc(F)c2)[C@H](C(=O)NC2CC(F)(F)C2)c2ncccc2Cl)c1 [Compound 198, (S)—N—((S)-1-(3-Chloropyridin-2-yl)-2-(3,3-difluorocyclobutylamino)-2-oxoethyl)-1-(4-cyanopyridin-2-yl)-N-(3,5-difluorophenyl)-5-oxopyrrolidine-2-carboxamide]
  IC50: < 100 nM

## N#Cc1ccnc(N2C(=O)CC[C@H]2C(=O)N(c2ccc3[nH]ccc3c2)[C@H](C(=O)NC2CC(F)(F)C2)c2ccccc2Cl)c1 [Compound 206, (S)—N—((S)-1-(2-Chlorophenyl)-2-((3,3-difluorocyclobutyl)amino)-2-oxoethyl)-1-(4-cyanopyridin-2-yl)-N-(1H-indol-5-yl)-5-oxopyrrolidine-2-carboxamide]
  IC50: < 100 nM

## CC(C)(O)c1cc(F)cc(N(C(=O)[C@@H]2COC(=O)N2c2cc(C#N)ccn2)C(C(=O)NC2CC(F)(F)C2)c2ccccc2Cl)c1 (stereo partly drawn) [Compound 145, (4S)—N-(1-(2-Chlorophenyl)-2-(3,3-difluorocyclobutylamino)-2-oxoethyl)-3-(4-cyanopyridin-2-yl)-N-(3-fluoro-5-(2-hydroxypropan-2-yl)phenyl)-2-oxooxazolidine-4-carboxamide]
  IC50: < 100 nM

## O=C(NC1CC(F)(F)C1)[C@H](c1ccccc1Cl)N(C(=O)[C@@H]1COCC(=O)N1c1ncccn1)c1cccc(F)c1 [Compound 30, (S)—N—((S)-1-(2-chlorophenyl)-2-((3,3-difluorocyclobutyl)amino)-2-oxoethyl)-N-(3-fluorophenyl)-5-oxo-4-(pyrimidin-2-yl)morpholine-3-carboxamide]
  IC50: 100 to 500 nM

## N#Cc1ccnc(N2C(=O)CCC[C@H]2C(=O)N(c2cccc(F)c2)[C@H](C(=O)NC2CC(F)(F)C2)c2ccccc2Cl)c1 [Compound 55, (S)—N—((S)-1-(2-Chlorophenyl)-2-(3,3-difluorocyclobutylamino)-2-oxoethyl)-1-(4-cyanopyridin-2-yl)-N-(3-fluorophenyl)-6-oxopiperidine-2-carboxamide]
  IC50: < 100 nM

## N#Cc1ccnc(N2C(=O)CC[C@H]2C(=O)N(c2cc(F)ccc2F)[C@H](C(=O)NC2CC(F)(F)C2)c2ccccc2Cl)c1 [Compound 197, (S)—N—((S)-1-(2-Chlorophenyl)-2-((3,3-difluorocyclobutyl)amino)-2-oxoethyl)-1-(4-cyanopyridin-2-yl)-N-(2,5-difluorophenyl)-5-oxopyrrolidine-2-carboxamide]
  IC50: < 100 nM

## O=C(NC1CCC(F)(F)CC1)[C@H](c1ccccc1Cl)N(C(=O)[C@@H]1COC(=O)N1c1ncccn1)c1cccc(F)c1 [Compound 76, (S)—N—((S)-1-(2-Chlorophenyl)-2-((4,4-difluorocyclohexyl)amino)-2-oxoethyl)-N-(3-fluoro-phenyl)-2-oxo-3-(pyrimidin-2-yl)oxazolidine-4-carboxamide]
  IC50: < 100 nM

## N#Cc1ccnc(N2C(=O)OCC[C@H]2C(=O)N(c2cccc(F)c2)C(C(=O)NC2CC(F)(F)C2)c2ccccc2Cl)c1 (stereo partly drawn) [Compound 90, (4S)—N-(1-(2-Chlorophenyl)-2-(3,3-difluorocyclobutylamino)-2-oxoethyl)-3-(4-cyanopyridin-2-yl)-N-(3-fluorophenyl)-2-oxo-1,3-oxazinane-4-carboxamide]
  IC50: < 100 nM

## O=C(NC1CC(F)(F)C1)C(c1ccccc1Cl)N(C(=O)[C@@H]1CCC(=O)N1c1ccccc1)c1cccc(F)c1 (stereo partly shown) [Compound 23]
  IC50: 100 to 500 nM

## N#Cc1ccnc(N2C(=O)CC[C@H]2C(=O)N(c2cc(F)cc(F)c2)[C@H](C(=O)NC2CC(F)(F)C2)c2ccccc2Cl)c1F [Compound 88, (S)—N—((S)-1-(2-Chlorophenyl)-2-((3,3-difluorocyclobutyl)amino)-2-oxoethyl)-1-(4-cyano-3-fluoropyridin-2-yl)-N-(3,5-difluorophenyl)-5-oxopyrrolidine-2-carboxamide]
  IC50: < 100 nM

## CCOC(=O)CN1CC(=O)N(c2cc(C#N)ccn2)[C@H](C(=O)N(c2cc(F)cc(F)c2)[C@H](C(=O)NC2CC(F)(F)C2)c2ccccc2Cl)C1 [Compound 104]
  IC50: < 100 nM

## CC(=O)N1CC(=O)N(c2cc(C#N)ccn2)[C@H](C(=O)N(c2cccc(F)c2)[C@H](C(=O)NC2CC(F)(F)C2)c2ccccc2Cl)C1 [Compound 92, (S)-4-Acetyl-N—((S)-1-(2-chlorophenyl)-2-(3,3-difluorocyclobutylamino)-2-oxoethyl)-1-(4-cyanopyridin-2-yl)-N-(3-fluorophenyl)-6-oxopiperazine-2-carboxamide]
  IC50: < 100 nM

## CC(C)(C)OC(=O)N1CC(=O)N(c2nccc(C#N)n2)[C@H](C(=O)N(c2cc(F)cc(F)c2)[C@H](C(=O)NC2CCC(F)(F)CC2)c2ccccc2Cl)C1 [Compound 93, (S)-tert-Butyl 3-(((S)-1-(2-chlorophenyl)-2-((4,4-difluorocyclohexyl)amino)-2-oxoethyl)(3,5-difluorophenyl)carbamoyl)-4-(4-cyanopyrimidin-2-yl)-5-oxopiperazine-1-carboxylate]
  IC50: < 100 nM

## N#Cc1ccnc(N2C(=O)[C@H](O)C[C@H]2C(=O)N(c2cc(F)cc(F)c2)[C@@H](C(=O)NC2CCC(F)(F)CC2)c2ccccc2Cl)n1 [Compound 126, (2S,4R)—N—((R)-1-(2-Chlorophenyl)-2-(4,4-difluorocyclohexylamino)-2-oxoethyl)-1-(4-cyanopyrimidin-2-yl)-N-(3,5-difluorophenyl)-4-hydroxy-5-oxopyrrolidine-2-carboxamide]
  IC50: 100 to 500 nM

## COc1cccc(N(C(=O)[C@@H]2CCC(=O)N2c2cc(C#N)ccn2)[C@H](C(=O)NC2CC(F)(F)C2)c2ccccc2Cl)c1 [Compound 129, (S)—N—((S)-1-(2C)-2-((3,3-difluorocyclobutyl)amino)-2-oxoethyl)-1-(4-cyanopyridin-2-yl)-N-(3-methoxyphenyl)-5-oxopyrrolidine-2-carboxamide]
  IC50: < 100 nM

## O=C(NC1CC(F)(F)C1)C(c1ccccc1Cl)N(C(=O)[C@@H]1CCCC(=O)N1c1ncccn1)c1cccc(F)c1 (stereo in doubt) [Compound 20, (S)—N—((R)-1-(2-Chloro-phenyl)-2-((3,3-difluorocyclobutyl)amino)-2-oxoethyl)-N-(3-fluoro-phenyl)-6-oxo-1-(pyrimidin-2-yl)piperidine-2-carboxamide]
  IC50: 100 to 500 nM
